PubChem BioAssay AID330 (DTP/NCI, 2004)
Values joined by “and” are separate entries in the source; they are usually repeats but may differ in a detail not shown here. Identical values can stand only once. Toxic doses and inconclusive results are not listed.

Test system: P388 leukemia ip, CD2F1 mice, survival T/C
Assay: NCI In Vivo Anticancer Drug Screen. Data for tumor model P388 Leukemia (intraperitoneal) in CD2F1 (CDF1) mice
Details: endpoint: median survival time, higher = longer survival
Outline: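 Mice carrying the transplanted tumor received test compound or vehicle. Survival was recorded in each group, and the value is the treated-group measurement divided by that of the vehicle-treated control group.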

[1] = dose: 50.0 mg/kg/injection, schedule: Q01DX005 (ip), vehicle: Klucel (hydroxypropylcellulose) (HPC)
[2] = dose: 100.0 mg/kg/injection, schedule: Q01DX005 (ip), vehicle: Klucel (hydroxypropylcellulose) (HPC)
[3] = dose: 200.0 mg/kg/injection, schedule: Q01DX005 (ip), vehicle: Klucel (hydroxypropylcellulose) (HPC)
[4] = dose: 50.0 mg/kg/injection, schedule: Q01DX005 (ip), vehicle: saline with Tween-80
[5] = dose: 100.0 mg/kg/injection, schedule: Q01DX005 (ip), vehicle: saline with Tween-80
[6] = dose: 200.0 mg/kg/injection, schedule: Q01DX005 (ip), vehicle: saline with Tween-80
[7] = dose: 50.0 mg/kg/injection, schedule: Q01DX009 (ip), vehicle: saline
[8] = dose: 100.0 mg/kg/injection, schedule: Q04DX002 (ip), vehicle: Klucel (hydroxypropylcellulose) (HPC)
[9] = dose: 200.0 mg/kg/injection, schedule: Q04DX002 (ip), vehicle: Klucel (hydroxypropylcellulose) (HPC)
[10] = dose: 50.0 mg/kg/injection, schedule: Q01DX009 (ip), vehicle: saline with Tween-80
[11] = dose: 100.0 mg/kg/injection, schedule: Q01DX009 (ip), vehicle: saline with Tween-80
[12] = dose: 200.0 mg/kg/injection, schedule: Q01DX009 (ip), vehicle: saline with Tween-80
[13] = dose: 12.5 mg/kg/injection, schedule: Q01DX009 (ip), vehicle: saline
[14] = dose: 25.0 mg/kg/injection, schedule: Q01DX009 (ip), vehicle: saline
[15] = dose: 50.0 mg/kg/injection, schedule: Q01DX009 (ip), vehicle: Klucel (hydroxypropylcellulose) (HPC)
[16] = dose: 100.0 mg/kg/injection, schedule: Q01DX009 (ip), vehicle: Klucel (hydroxypropylcellulose) (HPC)
[17] = dose: 200.0 mg/kg/injection, schedule: Q01DX009 (ip), vehicle: Klucel (hydroxypropylcellulose) (HPC)

COc1ccc2c3c([nH]c2c1)[C@H]1C[C@H]2[C@H](C[C@@H](O)[C@H](OC)[C@H]2CO)CN1CC3
T/C [1]: 104 % of control
T/C [2]: 95 % of control
T/C [3]: 90 % of control

CC(=O)C(=C/C=C/c1ccccc1)C(C)=O
T/C [4]: 90 % of control
T/C [5]: 98 % of control
T/C [6]: 100 % of control

COc1ccc2c(c1)[C@@]13CCCC[C@H]1[C@H](N(C)CC3)C21CC1
T/C (dose: 100.0 mg/kg/injection, schedule: Q01DX001 (ip), vehicle: Klucel (hydroxypropylcellulose) (HPC)): 97 % of control
T/C (dose: 200.0 mg/kg/injection, schedule: Q01DX001 (ip), vehicle: Klucel (hydroxypropylcellulose) (HPC)): 102 % of control

CCCCCCN1CCN(Cc2ccc(N(CC)CC)cc2)C(=O)C1=O
T/C [1]: 91 % of control
T/C [2]: 100 % of control
T/C [3]: 105 % of control

CCOC(=O)N(C)C(=O)NC
T/C [7]: 103 % of control and 105 % of control
T/C (dose: 100.0 mg/kg/injection, schedule: Q01DX009 (ip), vehicle: saline): 103 % of control and 109 % of control
T/C (dose: 200.0 mg/kg/injection, schedule: Q01DX009 (ip), vehicle: saline): 100 % of control and 104 % of control

CC(C)=NNC1=NC(C)(C)P(=O)(N2CCCC2C(=O)O)S1 (stereo not drawn)
T/C (dose: 60.0 mg/kg/injection, schedule: Q01DX005 (ip), vehicle: saline): 98 % of control
T/C (dose: 120.0 mg/kg/injection, schedule: Q01DX005 (ip), vehicle: saline): 104 % of control
T/C (dose: 240.0 mg/kg/injection, schedule: Q01DX005 (ip), vehicle: saline): 102 % of control

COc1ccc(-n2c(-c3ccc(-n4c(C)nc5ccc(I)cc5c4=O)cc3)n[nH]c2=S)cc1
T/C [8]: 103 % of control
T/C [9]: 98 % of control
T/C (dose: 400.0 mg/kg/injection, schedule: Q04DX002 (ip), vehicle: Klucel (hydroxypropylcellulose) (HPC)): 98 % of control

CC(C)(C)N=C(CCN1CCCCC1)Nc1ccc([N+](=O)[O-])cc1
T/C [10]: 112 % of control
T/C [11]: 110 % of control
T/C [12]: 103 % of control

O=c1ccc(OS(=O)(=O)c2ccccc2)n[nH]1
T/C (dose: 60.0 mg/kg/injection, schedule: Q01DX005 (ip), vehicle: Klucel (hydroxypropylcellulose) (HPC)): 92 % of control
T/C (dose: 120.0 mg/kg/injection, schedule: Q01DX005 (ip), vehicle: Klucel (hydroxypropylcellulose) (HPC)): 90 % of control

O=C(O)C(=O)O.[Mn]
T/C (dose: 100.0 mg/kg/injection, schedule: Q04DX003 (ip), vehicle: saline with Tween-80): 86 % of control

CC(C)C1=CC2=CCC3C(C)(C(=O)O)CCCC3(C)C2CC1.[Ni] (stereo not drawn)
T/C [13]: 95 % of control
T/C [14]: 88 % of control
T/C [7]: 88 % of control

CCC[CH2][Sn]([CH2]CCC)([CH2]CCC)[CH2]CC[N+](C)(C)C
T/C (dose: 0.78 mg/kg/injection, schedule: Q01DX009 (ip), vehicle: saline): 105 % of control
T/C (dose: 1.56 mg/kg/injection, schedule: Q01DX009 (ip), vehicle: saline): 105 % of control
T/C (dose: 3.12 mg/kg/injection, schedule: Q01DX009 (ip), vehicle: saline): 101 % of control

CCC(c1ccc(Cl)cc1)C(C#N)c1ccc(Cl)cc1 (stereo not drawn)
T/C [15]: 108 % of control
T/C [16]: 104 % of control
T/C [17]: 102 % of control

C/C(=C\Cl)COC1CCCCO1 (stereo not drawn)
T/C [10]: 122 % of control
T/C [11]: 122 % of control

Cc1ccc(C(C)C)cc1NC(=O)c1cccnc1
T/C (dose: 50.0 mg/kg/injection, schedule: Q04DX002 (ip), vehicle: Klucel (hydroxypropylcellulose) (HPC)): 98 % of control
T/C [8]: 102 % of control
T/C [9]: 92 % of control

CCOC(=O)C(C(C)=O)C(=O)C(C)(C)C (stereo not drawn)
T/C (dose: 6.25 mg/kg/injection, schedule: Q01DX009 (ip), vehicle: saline): 112 % of control
T/C [13]: 102 % of control
T/C [14]: 102 % of control
T/C [11]: 91 % of control
T/C [12]: 104 % of control

O=C(NC1CC1)OCc1c(COC(=O)NC2CC2)c(-c2ccc(Cl)c(Cl)c2)n2c1CCC2
T/C (dose: 6.25 mg/kg/injection, schedule: Q01DX009 (ip), vehicle: distilled water + Tween-80): 160 % of control
T/C (dose: 12.5 mg/kg/injection, schedule: Q01DX009 (ip), vehicle: distilled water + Tween-80): 171 % of control and 183 % of control
T/C (dose: 25.0 mg/kg/injection, schedule: Q01DX009 (ip), vehicle: distilled water + Tween-80): 101 % of control and 206 % of control

CCOC(=CP(=O)(c1ccccc1)c1ccccc1)OCC
T/C (dose: 50.0 mg/kg/injection, schedule: Q01DX005 (ip), vehicle: distilled water + Tween-80 + alcohol): 106 % of control
T/C (dose: 100.0 mg/kg/injection, schedule: Q01DX005 (ip), vehicle: distilled water + Tween-80 + alcohol): 105 % of control
T/C (dose: 200.0 mg/kg/injection, schedule: Q01DX005 (ip), vehicle: distilled water + Tween-80 + alcohol): 100 % of control

CS(=O)CSCC(N)C(=O)O (stereo not drawn)
T/C (dose: 25.0 mg/kg/injection, schedule: Q01DX009 (ip), vehicle: water): 91 % of control
T/C (dose: 50.0 mg/kg/injection, schedule: Q01DX009 (ip), vehicle: water): 100 % of control
T/C (dose: 100.0 mg/kg/injection, schedule: Q01DX009 (ip), vehicle: water): 93 % of control
T/C (dose: 200.0 mg/kg/injection, schedule: Q01DX009 (ip), vehicle: water): 99 % of control
T/C (dose: 400.0 mg/kg/injection, schedule: Q01DX009 (ip), vehicle: water): 96 % of control

CCN1CCC[C@]2(C)[C@H]3CC[C@@]4(C)[C@@H](CC[C@]4(C)O)[C@@H]3CC[C@@H]12
T/C (dose: 12.5 mg/kg/injection, schedule: Q01DX005 (ip), vehicle: Klucel (hydroxypropylcellulose) (HPC)): 101 % of control
T/C (dose: 25.0 mg/kg/injection, schedule: Q01DX005 (ip), vehicle: Klucel (hydroxypropylcellulose) (HPC)): 97 % of control
T/C [1]: 93 % of control and 95 % of control

CNC1C(O)C(OC2C(N)CC(N)C(OC3OC(C(C)O)C(O)C(O)C3N)C2O)OCC1(C)O (stereo not drawn)
T/C (dose: 7.5 mg/kg/injection, schedule: Q01DX005 (ip), vehicle: saline): 108 % of control
T/C (dose: 15.0 mg/kg/injection, schedule: Q01DX005 (ip), vehicle: saline): 107 % of control
T/C (dose: 30.0 mg/kg/injection, schedule: Q01DX005 (ip), vehicle: saline): 101 % of control

c1ccc(-c2[s+]ccc3ccccc23)cc1
T/C [15]: 115 % of control
T/C [16]: 118 % of control
T/C [17]: 117 % of control

CCN(CC)C(=S)Cl
T/C [4]: 107 % of control
T/C [5]: 106 % of control
T/C [6]: 101 % of control

CC(=O)Oc1cccc2c1CC(C[Se]c1ccccc1)C(=O)O2 (stereo not drawn)
T/C [4]: 94 % of control
T/C [5]: 89 % of control

CCOC(=O)Nc1cc(Cl)c2ncn(C(=O)OCC)c2n1
T/C [15]: 96 % of control
T/C [16]: 90 % of control
T/C [17]: 93 % of control

COC(=O)c1n[nH]n(Cc2cccs2)c1=O (tested in a mixture with another compound)
T/C [1]: 108 % of control
T/C [2]: 103 % of control
T/C [3]: 97 % of control

CCOC(=O)c1cc2nc(C(C)C)n(Cc3ccccc3)c2cc(C(=O)OCC)c1=O
T/C (dose: 60.0 mg/kg/injection, schedule: Q01DX005 (ip), vehicle: saline with Tween-80): 103 % of control
T/C (dose: 120.0 mg/kg/injection, schedule: Q01DX005 (ip), vehicle: saline with Tween-80): 97 % of control
T/C (dose: 240.0 mg/kg/injection, schedule: Q01DX005 (ip), vehicle: saline with Tween-80): 89 % of control

O=c1ccn2c(n1)SC(c1ccccc1)C2 (stereo not drawn)
T/C [10]: 100 % of control
T/C [11]: 98 % of control
T/C [12]: 100 % of control

COc1ccc(C(OC)C2CCCCC2N2CCCCC2)cc1 (stereo not drawn)
T/C (dose: 0.5 mg/kg/injection, schedule: Q01DX009 (ip), vehicle: Klucel (hydroxypropylcellulose) (HPC)): 107 % of control
T/C (dose: 1.0 mg/kg/injection, schedule: Q01DX009 (ip), vehicle: Klucel (hydroxypropylcellulose) (HPC)): 114 % of control
T/C (dose: 2.0 mg/kg/injection, schedule: Q01DX009 (ip), vehicle: Klucel (hydroxypropylcellulose) (HPC)): 107 % of control
T/C (dose: 4.0 mg/kg/injection, schedule: Q01DX009 (ip), vehicle: Klucel (hydroxypropylcellulose) (HPC)): 109 % of control

CCOC(=O)C1CC1c1c(C)c2cc3[nH]c(cc4nc(cc5nc(cc1[nH]2)C(C)=C5CCC(=O)OC)C(CCC(=O)OC)=C4C)c(C)c3C1CC1C(=O)OCC (stereo not drawn)
T/C [4]: 93 % of control
T/C [5]: 86 % of control
